Earlier results in patent US20170056386A1, “TOPICAL ANTIFUNGAL COMPOSITION FOR TREATING ONYCHOMYCOSIS” (Polichem SA, priority 2014, published 2017).

Test system: onychomycosis
Settings: oral administration

**Q.** For `CN(C/C=C/C#CC(C)(C)C)Cc1cccc2ccccc12` [terbinafine], which “Complete cure (patients)” value is on record?
**A.** 38%
